Values joined by “and” are separate entries in the source; they are usually repeats but may differ in a detail not shown here. Equal entries are not always repeated. Where two headings read alike, the source gives them in different places.
Experiment: ZEN concentrations and carryover factor in intestinal tissues and liver of pre-pubertal gilts exposed per os (HPLC)
Type: in vivo
Details: 40 μg/kg BW daily per os; for concentration at 4 weeks / concentration at 5 weeks / concentration at 1 week / concentration at 2 weeks / concentration at 3 weeks / concentration at 6 weeks: female, pig, oral
Procedure: The animals were divided into an experimental group (E, n = 18) and a control group (C, n = 21). Group E animals were orally administered ZEN at 40 μg/kg BW. Group C pigs were fed a placebo. The animals were fed complete diets in a restricted feeding regimen (Table 1). The daily dose of ZEN (40 µg/kg BW) was administered to each animal individually, which corresponds to exposure to 957–1014 µg ZEN/kg of a complete diet, depending on daily feed intake. Zearalenone was biosynthesized, purified and standardized by the Department of Chemistry of the Poznań University of Life Sciences. The experiment covered a period of 42 days. The mycotoxin was administered per os daily, in gelatine capsules before the morning feeding. The ZEN dose was adjusted to the body weight of the experimental animals. The mycotoxin was administered in capsules to prevent problems associated with uneven feed intake. Mycotoxin samples were diluted in 300 μL of 96% ethyl alcohol (96% ethyl alcohol, SWW 2442-90, Polskie Odczynniki Chemiczne SA, Gliwice, Poland) to the required dose level (based on body weight). Final solutions were stored at room temperature for 12 h to evaporate the solvent. The animals were weighed every 7 days to update mycotoxin doses for each gilt. Three animals from the experimental group and the control group each were sacrificed on Days 1, 7, 14, 21, 28, 35 and 42 (a total of 6 gilts in each week of exposure), excluding day 1, when only 3 control group animals were scarified. Every week, tissue samples were collected from the porcine gastrointestinal tract (duodenum, first and middle sections, jejunum, ileum, cecum, ascending colon, transverse colon, descending colon, middle section, and the liver, left lobe). Tissue samples were collected from the whole intestinal cross-sections.
Post-mortem tissue samples were collected from the duodenum, jejunum, ileum, cecum, ascending colon, transverse colon, descending colon and the liver after rinsing with phosphate buffer. Pure tissues were stored at −80 °C until shredding and extraction.
Tissue samples (2 g) were homogenized with 9 cm^3 of methanol for 4 min; they were transferred to centrifuge tubes with a minimal amount of the sediment, and the remainder was combined with 5 cm^3 of methanol and repeatedly homogenized. The extracts were combined and centrifuged for 10 min. The supernatant was transferred to a graduated test tube; its volume was read from the scale, and it was evaporated under a stream of nitrogen at a temperature of 60 °C to 0.1–0.2 cm^3 of water. The evaporated product was combined with 2 cm^3 of deionized water, 2 cm^3 of 0.2 M sodium acetate and 500 µL of […] solution. After 16 h of incubation at 37 °C, the reaction was stopped by adding 0.5 cm^3 of acetonitrile. The mixture was quantitatively transferred to a centrifuge tube; it was combined with 10 cm^3 of deionized water and centrifuged for 10 min at 3500 rpm. The supernatant was applied to the Zearala-Test™ column at the rate of 1–2 drops per second. Mycotoxins were eluted from the column with 1.5 mL of methanol; the solvent was evaporated, and the residue was reconstituted with 1 mL of methanol for HPLC analysis.
The concentrations of ZEN and its derivatives were determined by HPLC with the use of the Waters 2695 Separations Module, Waters 2475 Multi λ Fluorescence Detector and Waters 2996 Array Detector. Excitation and emission wavelengths were 274 and 440 nm, respectively. The reverse-phase column was C-18 Nova Pak (3.9 × 150 mm), and the mobile phase was acetonitrile-water-methanol (46:46:8, v/v/v) at a flow rate of 0.5 mL·min^−1. The mycotoxins were quantified by measuring the […] of the peaks based on the relevant calibration curves (correlation coefficient of 0.9996 for ZEN, 0.9989 for α-ZEL and 0.9976 for β-ZEL). Detection limits were determined at 0.001 µg·g^−1 for ZEN, 0.003 µg·g^−1 for α-ZEL and 0.002 µg·g^−1 for β-ZEL. […]

[1] = Week I of exposure, total ZEN dose 280 µg/kg BW
[2] = Week II of exposure, total ZEN dose 560 µg/kg BW
[3] = Week III of exposure, total ZEN dose 840 µg/kg BW
[4] = Week IV of exposure, total ZEN dose 1120 µg/kg BW
[5] = Week V of exposure, total ZEN dose 1400 µg/kg BW
[6] = Week VI of exposure, total ZEN dose 1680 µg/kg BW

SMILES: C[C@H]1CCCC(=O)CCC/C=C/c2cc(O)cc(O)c2C(=O)O1 [ZEN, zearalenone]
- Carryover Factor (CF), Ascending Colon [1]: 0.0054
- Carryover Factor (CF), Cecum [1]: 0.0162
- Carryover Factor (CF), Descending Colon [1]: 0.0167
- Carryover Factor (CF), Duodenum [1]: 0.031
- Carryover Factor (CF), Ileum [1]: 0.016
- Carryover Factor (CF), Jejunum [1]: 0.035
- Carryover Factor (CF), Liver [1]: 0.0225
- Carryover Factor (CF), Transverse Colon [1]: 0.0049
- Carryover Factor (CF), Ascending Colon [2]: 0.0028
- Carryover Factor (CF), Cecum [2]: 0.0075
- Carryover Factor (CF), Descending Colon [2]: 0.0121
- Carryover Factor (CF), Duodenum [2]: 0.022
- Carryover Factor (CF), Ileum [2]: 0.009
- Carryover Factor (CF), Jejunum [2]: 0.035
- Carryover Factor (CF), Liver [2]: 0.0139
- Carryover Factor (CF), Transverse Colon [2]: 0.0082
- Carryover Factor (CF), Ascending Colon [3]: 0.0037
- Carryover Factor (CF), Descending Colon [3]: 0.0090
- Carryover Factor (CF), Duodenum [3]: 0.014
- Carryover Factor (CF), Ileum [3]: 0.008
- Carryover Factor (CF), Jejunum [3]: 0.016
- Carryover Factor (CF), Liver [3]: 0.0154
- Carryover Factor (CF), Transverse Colon [3]: 0.0046
- Carryover Factor (CF), Ascending Colon [4]: 0.0042
- Carryover Factor (CF), Cecum [4]: 0.0030
- Carryover Factor (CF), Descending Colon [4]: 0.1830
- Carryover Factor (CF), Duodenum [4]: 0.019
- Carryover Factor (CF), Ileum [4]: 0.004
- Carryover Factor (CF), Jejunum [4]: 0.039
- Carryover Factor (CF), Liver [4]: 0.0162
- Carryover Factor (CF), Transverse Colon [4]: 0.0065
- ZEN Concentrations (x¯ and SD), Ascending Colon [4]: 4.69 ± 0.45 ng/g
- ZEN Concentrations (x¯ and SD), Descending Colon [4]: 205.01 ± 94.70 ng/g
- ZEN Concentrations (x¯ and SD), Jejunum [4]: 43.82 ± 7.63 ng/g
- ZEN Concentrations (x¯ and SD), Transverse Colon [4]: 7.37 ± 1.66 ng/g
- Carryover Factor (CF), Ascending Colon [5]: 0.0024
- Carryover Factor (CF), Cecum [5]: 0.0129
- Carryover Factor (CF), Descending Colon [5]: 0.1264
- Carryover Factor (CF), Duodenum [5]: 0.091
- Carryover Factor (CF), Ileum [5]: 0.002
- Carryover Factor (CF), Jejunum [5]: 0.010
- Carryover Factor (CF), Liver [5]: 0.0142
- Carryover Factor (CF), Transverse Colon [5]: 0.0046
- ZEN Concentrations (x¯ and SD), Cecum [5]: 18.17 ± 5.02 ng/g
- ZEN Concentrations (x¯ and SD), Duodenum [5]: 128 ng/g and 128.18 ± 64.54 ng/g
- Carryover Factor (CF), Ascending Colon [6]: 0.0014
- Carryover Factor (CF), Cecum [6]: 0.0081
- Carryover Factor (CF), Descending Colon [6]: 0.0666
- Carryover Factor (CF), Duodenum [6]: 0.048
- Carryover Factor (CF), Ileum [6]: 0.016
- Carryover Factor (CF), Jejunum [6]: 0.005
- Carryover Factor (CF), Liver [6]: 0.0136
- Carryover Factor (CF), Transverse Colon [6]: 0.0039
- ZEN Concentrations (x¯ and SD), Ileum [6]: 27.52 ± 10.28 ng/g
- ZEN Concentrations (x¯ and SD), Liver [6]: 23.00 ± 0.79 ng/g
- CF, Average values, Ascending Colon (average of Weeks I-VI): 0.0033
- CF, Average values, Cecum (average of Weeks I-VI): 0.0089
- CF, Average values, Descending Colon (average of Weeks I-VI): 0.0688
- CF, Average values, Duodenum (average of Weeks I-VI): 0.0375
- CF, Average values, Ileum (average of Weeks I-VI): 0.0091
- CF, Average values, Jejunum (average of Weeks I-VI): 0.0233
- CF, Average values, Liver (average of Weeks I-VI): 0.0159
- CF, Average values, Transverse Colon (average of Weeks I-VI): 0.0054
- ZEN concentration, Average values, Ascending Colon (average of Weeks I-VI): 2.805 ng/g
- ZEN concentration, Average values, Descending Colon (average of Weeks I-VI): 85.525 ng/g
- ZEN concentration, Average values, Duodenum (average of Weeks I-VI): 43.93 ng/g
- ZEN concentration, Average values, Ileum (average of Weeks I-VI): 8.705 ng/g
- ZEN concentration, Average values, Jejunum (average of Weeks I-VI): 18.208 ng/g
- ZEN concentration, Average values, Liver (average of Weeks I-VI): 14.72 ng/g
- average ileal concentrations of ZEN (between Week I and Week V): 4.9 ng/g
- concentration at 4 weeks (ascending colon, 40 μg/kg BW daily, Week IV of exposure, total ZEN dose 1120 µg/kg BW, read-out: ZEN Concentrations (x¯ and SD), Ascending Colon): 4.7 ng/g
- concentration at 5 weeks (ascending colon, 40 μg/kg BW daily, Week V of exposure, total ZEN dose 1400 µg/kg BW, read-out: ZEN Concentrations (x¯ and SD), Ascending Colon): 3.4 ± 0.54 ng/g
- concentration at 1 week (ascending colon, 40 μg/kg BW, Week I of exposure, total ZEN dose 280 µg/kg BW, read-out: ZEN Concentrations (x¯ and SD), Ascending Colon): 1.53 ± 1.95 ng/g
- concentration at 2 weeks (ascending colon, 40 μg/kg BW, Week II of exposure, total ZEN dose 560 µg/kg BW, read-out: ZEN Concentrations (x¯ and SD), Ascending Colon): 1.59 ± 2.76 ng/g
- concentration at 3 weeks (ascending colon, 40 μg/kg BW, Week III of exposure, total ZEN dose 840 µg/kg BW, read-out: ZEN Concentrations (x¯ and SD), Ascending Colon): 3.16 ± 1.79 ng/g
- concentration at 6 weeks (ascending colon, 40 μg/kg BW, Week VI of exposure, total ZEN dose 1680 µg/kg BW, read-out: ZEN Concentrations (x¯ and SD), Ascending Colon): 2.46 ± 1.92 ng/g
- concentration at 5 weeks (cecum, 40 μg/kg BW daily, Week V of exposure, total ZEN dose 1400 µg/kg BW, read-out: ZEN Concentrations (x¯ and SD), Cecum): 18.2 ng/g
- concentration at 6 weeks (cecum, 40 μg/kg BW, Week VI of exposure, total ZEN dose 1680 µg/kg BW, read-out: ZEN Concentrations (x¯ and SD), Cecum): 13.7 ± 1.17 ng/g
- concentration at 4 weeks (descending colon, 40 μg/kg BW daily, Week IV of exposure, total ZEN dose 1120 µg/kg BW, read-out: ZEN Concentrations (x¯ and SD), Descending Colon): 205 ng/g
- concentration at 5 weeks (descending colon, 40 μg/kg BW daily, Week V of exposure, total ZEN dose 1400 µg/kg BW, read-out: ZEN Concentrations (x¯ and SD), Descending Colon): 177 ± 50.6 ng/g
- concentration at 6 weeks (descending colon, 40 μg/kg BW, Week VI of exposure, total ZEN dose 1680 µg/kg BW, read-out: ZEN Concentrations (x¯ and SD), Descending Colon): 112 ± 13.7 ng/g
- concentration at 1 week (duodenum, 40 μg/kg BW daily, Week I of exposure, total ZEN dose 280 µg/kg BW, read-out: ZEN Concentrations (x¯ and SD), Duodenum): 8.6 ng/g
- concentration at 5 weeks (duodenum, 40 μg/kg BW daily, Week V of exposure, total ZEN dose 1400 µg/kg BW, read-out: ZEN Concentrations (x¯ and SD), Duodenum): 128 ng/g
- concentration at 6 weeks (duodenum, 40 μg/kg BW, Week VI of exposure, total ZEN dose 1680 µg/kg BW, read-out: ZEN Concentrations (x¯ and SD), Duodenum): 80.7 ± 4.34 ng/g
- concentration at 6 weeks (ileum, 40 μg/kg BW daily, Week VI of exposure, total ZEN dose 1680 µg/kg BW, read-out: ZEN Concentrations (x¯ and SD), Ileum): 27.5 ng/g
- concentration at 4 weeks (jejunum, 40 μg/kg BW daily, Week IV of exposure, total ZEN dose 1120 µg/kg BW, read-out: ZEN Concentrations (x¯ and SD), Jejunum): 43.8 ng/g
- concentration at 6 weeks (jejunum, 40 μg/kg BW daily, Week VI of exposure, total ZEN dose 1680 µg/kg BW, read-out: ZEN Concentrations (x¯ and SD), Jejunum): 8.3 ng/g
- concentration at 4 weeks (liver, 40 μg/kg BW daily, Week IV of exposure, total ZEN dose 1120 µg/kg BW, read-out: ZEN Concentrations (x¯ and SD), Liver): 18.2 ± 5.92 ng/g
- concentration at 5 weeks (liver, 40 μg/kg BW daily, Week V of exposure, total ZEN dose 1400 µg/kg BW, read-out: ZEN Concentrations (x¯ and SD), Liver): 20 ± 2.43 ng/g
- concentration at 6 weeks (liver, 40 μg/kg BW daily, Week VI of exposure, total ZEN dose 1680 µg/kg BW, read-out: ZEN Concentrations (x¯ and SD), Liver): 23 ng/g
- concentration at 3 weeks (liver, 40 μg/kg BW, Week III of exposure, total ZEN dose 840 µg/kg BW, read-out: ZEN Concentrations (x¯ and SD), Liver): 13 ± 1.78 ng/g
- concentration at 4 weeks (transverse colon, 40 μg/kg BW daily, Week IV of exposure, total ZEN dose 1120 µg/kg BW, read-out: ZEN Concentrations (x¯ and SD), Transverse Colon): 7.4 ng/g
- concentration at 5 weeks (transverse colon, 40 μg/kg BW daily, Week V of exposure, total ZEN dose 1400 µg/kg BW, read-out: ZEN Concentrations (x¯ and SD), Transverse Colon): 6.49 ± 0.96 ng/g
- concentration at 2 weeks (transverse colon, 40 μg/kg BW, Week II of exposure, total ZEN dose 560 µg/kg BW, read-out: ZEN Concentrations (x¯ and SD), Transverse Colon): 4.63 ± 3.86 ng/g
- concentration at 3 weeks (transverse colon, 40 μg/kg BW, Week III of exposure, total ZEN dose 840 µg/kg BW, read-out: ZEN Concentrations (x¯ and SD), Transverse Colon): 3.94 ± 0.57 ng/g
- concentration at 6 weeks (transverse colon, 40 μg/kg BW, Week VI of exposure, total ZEN dose 1680 µg/kg BW, read-out: ZEN Concentrations (x¯ and SD), Transverse Colon): 6.7 ± 0.25 ng/g

Source: paper PMC4549746, “Zearalenone in the Intestinal Tissues of Immature Gilts Exposed per os to Mycotoxins” (Toxins, 2015)
